These results are taken from US10208040B2, “Fused imidazo-piperidine JAK inhibitors” (THERAVANCE BIOPHARMA R&D IP, LLC, priority 2017, dated 2019).

In assay [1] the test system is IL-2/anti-CD3 stimulated IFNγ in human PBMCs. The experiment in a line: Inhibition of IL-2/anti-CD3 stimulated IFNγ in human PBMCs. The format is cell-based. Particulars: PBMC, read-out: pIC50 inhibition of IL-2/anti-CD3 stimulated IFNγ (converted). The procedure: The potency of the test compound for inhibition of interleukin-2 (IL-2)/anti-CD3 stimulated interferon gamma (IFNγ) was measured in human peripheral blood mononuclear cells (PBMCs) isolated from human whole blood (Stanford Blood Center). Because IL-2 signals through JAK, this assay provides a measure of JAK cellular potency.
(1) Human peripheral blood mononuclear cells (PBMC) were isolated from human whole blood of healthy donors using a ficoll gradient. Cells were cultured in a 37° C., 5% CO2 humidified incubator in RPMI (Life Technologies) supplemented with 10% Heat Inactivated Fetal Bovine Serum (FBS, Life Technologies), 2 mM Glutamax (Life Technologies), 25 mM HEPES (Life Technologies) and 1× Pen/Strep (Life Technologies). Cells were seeded at 200,000 cells/well in media (50 μL) and cultured for 1 h. Compounds were serially diluted in DMSO and then diluted another 500-fold (to a 2× final assay concentration) in media. Test compounds (100 μL/well) were added to cells, and incubated at 37° C., 5% CO2 for 1 h, followed by the addition of IL-2 (R&D Systems; final concentration 100 ng/mL) and anti-CD3 (BD Biosciences; final concentration 1 μg/mL) in pre-warmed assay media (50 μL) for 24 h.
(2) After cytokine stimulation, cells were centrifuged at 500 g for 5 min and supernatants removed and frozen at −80° C. To determine the inhibitory potency of the test compound in response to IL-2/anti-CD3, supernatant IFNγ concentrations were measured via ELISA (R&D Systems). IC50 values were determined from analysis of the inhibition curves of concentration of IFNγ vs compound concentration. Data are expressed as pIC50 (negative decadic logarithm IC50) values.

The test system of assay [2] is IL-2/anti-CD3 stimulated STAT5 phosphorylation in CD4+ T cells. The experiment in a line: Inhibition of IL-2 stimulated pSTAT5 in CD4+ T cells. The format is cell-based. Conditions: CD4+ T cells in human PBMCs; read-out: pIC50 inhibition of IL-2 stimulated pSTAT5 (converted). The procedure:
The potency of the test compound for inhibition of interleukin-2 (IL-2)/anti-CD3 stimulated STATS phosphorylation was measured in CD4-positive (CD4+) T cells in human peripheral blood mononuclear cells (PBMCs) isolated from human whole blood (Stanford Blood Center) using flow cytometry. Because IL-2 signals through JAK, this assay provides a measure of JAK cellular potency.
CD4+ T cells were identified using a […] (PE) conjugated anti-CD4 antibody (Clone RPA-T4, BD Biosciences), while an Alexa Fluor 647 conjugated anti-pSTAT5 antibody (pY694, Clone 47, BD Biosciences) was used to detect STATS phosphorylation.
(1) The protocol of Assay 7 paragraph (1) was followed with the exception that the cytokine stimulation with anti-CD3 was performed for 30 min instead of 24 h.
(2) After cytokine stimulation, cells were fixed with pre warmed fix solution (200 μL; BD Biosciences) for 10 min at 37° C., 5% CO2, washed twice with DPBS buffer (1 mL, Life Technologies), and resuspended in ice cold Perm Buffer III (1000 μL, BD Biosciences) for 30 min at 4° C. Cells were washed twice with 2% FBS in DPBS (FACS buffer), and then resuspended in FACS buffer (100 μL) containing anti-CD4 PE (1:50 dilution) and anti-CD3 […] (1:5 dilution) for 60 min at room temperature in the dark. After incubation, cells were washed twice in FACS buffer before being analyzed using a LSRII flow cytometer (BD Biosciences). To determine the inhibitory potency of test compounds in response to IL-2/anti-CD3, the median fluorescent intensity (MFI) of pSTAT5 was measured in CD4+ T cells. IC50 values were determined from analysis of the inhibition curves of MFI vs compound concentration. Data are expressed as pIC50 (negative decadic logarithm IC50) values.

The test system of assay [3] is IL-13 induced pSTAT6 in lung tissue. The experiment in a line: Murine model of IL-13 induced pSTAT6 induction in lung tissue. The format is in vivo. Particulars: mouse lung, oral aspiration 1 mg/mL 50 μL, IL-13 challenge 4 h post dose, pSTAT6 at 5 hours. Here is the method: IL-13 is an important cytokine underlying the pathophysiology of asthma (Kudlacz et al. Eur. J. Pharmacol, 2008, 582, 154-161). IL-13 binds to cell surface receptors activating members of the Janus family of kinases (JAK) which then phosphorylate STAT6 and subsequently activates further transcription pathways. In the described model, a dose of IL-13 was delivered locally into the lungs of mice to induce the phosphorylation of STAT6 (pSTAT6) which is then measured as the endpoint.
Adult balb/c mice from Harlan were used in the assay. On the day of study, animals were lightly anesthetized with isoflurane and administered either vehicle or test compound (1 mg/mL, 50 μL total volume over several breaths) via oral aspiration. Animals were placed in lateral recumbency post dose and monitored for full recovery from anesthesia before being returned to their home cage. Four hours later, animals were once again briefly anesthetized and challenged with either vehicle or IL-13 (0.03 μg total dose delivered, 50 μL total volume) via oral aspiration before being monitored for recovery from anesthesia and returned to their home cage. One hour after vehicle or IL-13 administration, lungs were collected for both pSTAT6 detection using an anti-pSTAT6 ELISA (rabbit mAb capture/coating antibody; mouse mAb detection/report antibody: anti-pSTAT6-pY641; secondary antibody: anti-mouse IgG-HRP) and analyzed for total drug concentration as described above in Assay 3.
Selected compounds of the invention were tested in the assay. Activity in the model is evidenced by a decrease in the level of pSTAT6 present in the lungs of treated animals at 5 hours compared to the vehicle treated, IL-13 challenged control animals. The difference between the control animals which were vehicle-treated, IL-13 challenged and the control animals which were vehicle-treated, vehicle challenged dictated the 0% and 100% inhibitory effect, respectively, in any given experiment.

The target of another assay is JAK2 (Homo sapiens (Human), UniProt O60674). The experiment in a line: Biochemical JAK kinase assay (LanthaScreen), JAK2. The procedure:
(§1) A panel of four LanthaScreen JAK biochemical assays (JAK1, 2, 3 and Tyk2) were carried in a common kinase reaction buffer (50 mM HEPES, pH 7.5, 0.01% Brij-35, 10 mM MgCl2, and 1 mM EGTA). Recombinant GST-tagged JAK enzymes and a GFP-tagged STAT1 peptide substrate were obtained from Life Technologies.
(§2) Serially diluted compounds were pre-incubated with each of the four JAK enzymes and the substrate in white 384-well microplates (Corning) at ambient temperature for 1 h. ATP was subsequently added to initiate the kinase reactions in 10 μL total volume, with 1% DMSO. […] The plates were allowed to incubate at ambient temperature for 1 h before being read on the EnVision reader (Perkin Elmer).
(§3) For dose-response analysis, percent inhibition data were plotted vs. compound concentrations, and IC50 values were determined from a 4-parameter robust fit model with the Prism software (GraphPad Software). Results were expressed as pIC50 (negative logarithm of IC50) and subsequently converted to pKi (negative logarithm of dissociation constant, Ki) using the Cheng-Prusoff equation.
In general terms: Time-resolved FRET reads energy transfer from a long-lived donor to a nearby acceptor.

In another assay the target is JAK1 (Homo sapiens (Human), UniProt P23458). The experiment in a line: Biochemical JAK kinase assay (LanthaScreen), JAK1. The procedure:
as §1, §2, §3

The structures appear in SMILES notation.

Sequence of JAK2 (O60674 whole entry): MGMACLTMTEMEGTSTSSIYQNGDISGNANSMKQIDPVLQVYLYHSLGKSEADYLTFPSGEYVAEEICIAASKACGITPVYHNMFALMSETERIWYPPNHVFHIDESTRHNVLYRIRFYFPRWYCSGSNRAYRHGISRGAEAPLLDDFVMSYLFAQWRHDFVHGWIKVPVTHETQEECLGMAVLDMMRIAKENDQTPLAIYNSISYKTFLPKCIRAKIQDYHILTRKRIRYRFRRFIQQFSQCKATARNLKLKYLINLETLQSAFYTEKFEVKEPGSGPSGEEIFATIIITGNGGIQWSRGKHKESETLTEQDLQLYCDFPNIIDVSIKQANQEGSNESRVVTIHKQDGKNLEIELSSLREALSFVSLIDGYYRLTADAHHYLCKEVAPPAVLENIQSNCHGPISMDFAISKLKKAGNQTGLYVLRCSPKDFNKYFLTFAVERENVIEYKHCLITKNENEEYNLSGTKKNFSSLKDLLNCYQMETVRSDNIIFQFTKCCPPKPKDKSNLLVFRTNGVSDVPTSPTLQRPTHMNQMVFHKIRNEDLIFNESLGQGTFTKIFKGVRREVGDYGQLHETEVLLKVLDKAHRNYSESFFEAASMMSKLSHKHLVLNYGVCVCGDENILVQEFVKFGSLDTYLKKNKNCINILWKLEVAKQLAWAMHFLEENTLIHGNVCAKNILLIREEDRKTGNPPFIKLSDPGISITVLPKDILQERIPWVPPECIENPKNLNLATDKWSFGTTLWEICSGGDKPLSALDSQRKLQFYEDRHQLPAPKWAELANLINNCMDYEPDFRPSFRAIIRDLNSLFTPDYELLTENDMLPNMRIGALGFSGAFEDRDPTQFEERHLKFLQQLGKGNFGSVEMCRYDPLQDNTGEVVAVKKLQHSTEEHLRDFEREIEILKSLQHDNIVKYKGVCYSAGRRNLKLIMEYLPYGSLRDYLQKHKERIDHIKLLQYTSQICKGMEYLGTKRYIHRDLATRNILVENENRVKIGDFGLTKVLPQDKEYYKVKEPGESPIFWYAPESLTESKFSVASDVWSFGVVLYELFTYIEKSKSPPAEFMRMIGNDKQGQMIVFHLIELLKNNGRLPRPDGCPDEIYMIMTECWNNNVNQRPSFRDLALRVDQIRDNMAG
Sequence of JAK1 (P23458 whole entry): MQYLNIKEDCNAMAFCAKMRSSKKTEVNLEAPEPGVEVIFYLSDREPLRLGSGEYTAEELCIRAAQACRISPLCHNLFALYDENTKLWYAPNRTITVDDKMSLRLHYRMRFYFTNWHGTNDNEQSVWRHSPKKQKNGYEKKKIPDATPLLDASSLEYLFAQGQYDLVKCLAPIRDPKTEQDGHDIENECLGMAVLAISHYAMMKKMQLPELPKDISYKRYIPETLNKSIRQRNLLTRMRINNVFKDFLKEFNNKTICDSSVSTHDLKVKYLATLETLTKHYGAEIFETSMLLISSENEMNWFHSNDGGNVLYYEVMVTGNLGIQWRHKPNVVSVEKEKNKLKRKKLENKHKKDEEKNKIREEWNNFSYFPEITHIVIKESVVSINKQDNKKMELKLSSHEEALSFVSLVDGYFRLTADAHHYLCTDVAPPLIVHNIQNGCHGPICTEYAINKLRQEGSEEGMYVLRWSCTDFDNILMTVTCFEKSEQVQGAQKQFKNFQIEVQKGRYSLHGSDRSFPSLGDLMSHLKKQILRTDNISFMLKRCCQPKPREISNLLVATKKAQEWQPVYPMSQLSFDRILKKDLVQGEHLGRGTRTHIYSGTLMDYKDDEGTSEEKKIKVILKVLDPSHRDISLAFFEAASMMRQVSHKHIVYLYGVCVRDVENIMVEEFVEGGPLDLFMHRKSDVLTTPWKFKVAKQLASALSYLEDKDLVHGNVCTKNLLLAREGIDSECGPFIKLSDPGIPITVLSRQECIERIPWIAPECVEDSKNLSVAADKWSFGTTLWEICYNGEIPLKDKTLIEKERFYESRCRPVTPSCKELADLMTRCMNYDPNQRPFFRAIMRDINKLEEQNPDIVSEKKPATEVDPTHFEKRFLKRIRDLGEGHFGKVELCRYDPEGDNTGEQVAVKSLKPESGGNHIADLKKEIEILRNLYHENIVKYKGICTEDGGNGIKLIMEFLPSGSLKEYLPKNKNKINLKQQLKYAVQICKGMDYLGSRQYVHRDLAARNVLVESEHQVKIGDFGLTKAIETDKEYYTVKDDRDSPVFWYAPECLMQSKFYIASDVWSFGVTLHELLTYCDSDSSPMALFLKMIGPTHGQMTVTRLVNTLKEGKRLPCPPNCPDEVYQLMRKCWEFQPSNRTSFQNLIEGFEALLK

What is called Ki is the dissociation constant of the complex between target and ligand, obtained from inhibition or displacement. The low end stands for a stronger hold on the target, the high end for a looser hold on the target. On to `CCCN1Cc2[nH]c(-c3n[nH]c4cc(-c5cc(F)c(O)cc5CC)ccc34)nc2C[C@H]1C(=O)N1C[C@@H]2C[C@H]1CN2C` [Example 1, ((S)-2-(6-(2-ethyl-5-fluoro-4-hydroxyphenyl)-1H-indazol-3-yl)-5-propyl-4,5,6,7-tetrahydro-3H-imidazo[4,5-c]pyridin-6-yl)((1S,4S)-5-methyl-2,5-diazabicyclo-[2.2.1]heptan-2-yl)methanone], for which the IC50 was about 126 nM in assay [1] and about 50.1 nM in assay [2]. In addition, the “pSTAT6 inhibition Assay 4” value in assay [3] is “A (A represents between 60% and 80% inhibition)”. Also, the Ki was 0.02 nM on JAK2 and 0.05 nM at JAK1.
For `CCc1cc(O)c(F)cc1-c1ccc2c(-c3nc4c([nH]3)CN(CC)[C@@H](C(=O)N3CCN(C(C)(C)C)CC3)C4)n[nH]c2c1` [Example 1-37], the values for the IC50 in assay [1] and in assay [2] were about 63.1 nM and about 7.94 nM, respectively. Moreover, the “pSTAT6 inhibition Assay 4” value in assay [3] is “C (C represents between 25% and 40% inhibition)”. The Ki at JAK2 worked out at 0.04 nM; on JAK1, 0.1 nM.
`CCc1cc(O)c(F)cc1-c1ccc2c(-c3nc4c([nH]3)CN(C(C)C)[C@H](C(=O)N3CC[C@H](N(C)C)C3)C4)n[nH]c2c1` [Example 3]: the results for the IC50 in assay [1] and in assay [2] were about 63.1 nM and about 20 nM, respectively. Also, the “pSTAT6 inhibition Assay 4” value in assay [3] is “B (B represents between 40% and 60% inhibition)”. The Ki at JAK2 turned out to be 0.02 nM; on JAK1, 0.06 nM.
